Regarding `COc1ccc(/C=C2\CCCC3=C2NC(=S)NC3c2ccc(OC)cc2)cc1` (stereo unspecified), the melting point (in general, the temperature, or range, at which the solid turns liquid) stood at 184 °C.

`C=C1C(=O)OC2C1CCC(C)C1C=CC(=O)C12C` (stereo unspecified) returned a melting point of 146 °C.

Consider `Cc1cc(O)c(C)c(C)c1C`, for which the melting point was 85.3 °C.

The compound `CCOC(=O)c1c[nH]c(=S)[nH]c1=O` displayed a melting point of 252 °C.

With `Clc1ccc(C(Cl)(Cl)Cl)cc1`, the melting point was 5.8 °C.

The compound `Cc1c(C(=O)O)nnn1-c1cccc(C(F)(F)F)c1` registered a melting point of 155 to 156 °C.

Compound `NC(=NO)c1cccc(C(=O)O)c1` gave a melting point of 196 to 197 °C.

`Brc1cccc(COc2ccccc2)c1`: the melting point was 38 to 39 °C.

Compound `N[C@@H](CSCc1ccccc1)C(=O)O` gave a melting point of 209 to 214 °C.

Turning to `CC(C)CCCCCOC(=O)c1ccccc1C(=O)OCCCCCC(C)C`, the melting point is -4 °C.

Compound `NC(=O)Cc1cccs1` registered a melting point of 147 °C.

`CC1(C)CC(C)(c2ccc(O)cc2)c2ccccc2O1` (stereo unspecified) displayed a melting point of 140 °C.

Turning to `Cc1nc[nH]c1C=O`, the melting point lay in the range of 165 to 166 °C.

In turn, `O=Cc1ccc(F)cc1Cl` showed a melting point of 62 °C.

Regarding `S=C(NCCc1ccccc1)Nc1ccccc1`, the melting point came to 135 °C.

`c1ccc2c(c1)NC1(CCCCC1)O2` showed a melting point of 243 °C.

In turn, `COC(=O)c1ccccc1OC1OC(COC2OCC(O)C(O)C2O)C(O)C(O)C1O` (stereo unspecified) came in with a melting point of 180 °C.

For `O=C1Cc2ccccc2CO1`, the melting point was in the range of 82 to 83 °C.

The compound `O=C(c1ccccc1)N1CC(c2ccccc2)C=C1c1ccccc1` (stereo unspecified) returned a melting point of 180 °C.

`COc1ccc2c(c1)OC1c3ccc(O)cc3OCC21` (stereo unspecified) displayed a melting point of 128 °C.

The compound `CCCCCCCCCCCC(=O)CCCC` displayed a melting point of 37 °C.

`COc1ccc2sc(C)nc2c1`: the melting point was 36 °C.

For `O=C(Cl)c1ccc2nsnc2c1`, the melting point worked out at 111 °C.

`O=C(O)c1cc(-c2ccccc2)n[nH]1`: the melting point was determined as 250 °C.

`O=C(CBr)c1cccc([N+](=O)[O-])c1`: the melting point stood at 94 °C.

Regarding `S=C=Nc1ccccc1I`, the melting point amounted to 39 °C.

As for `Cc1c(CN2CCOC(c3ccccc3)C2C)c(=O)n(-c2ccccc2)n1C` (stereo unspecified), the melting point came to 149 °C.

In turn, `Cc1ccc2oc(CCC(C)(O)c3ccccc3)c(-c3ccc(C)o3)c2c1` (stereo unspecified) registered a melting point of 85 °C.

The compound `Cc1ccc(Cl)c(CO)c1F` displayed a melting point of 57 °C.

Take `C#CC1(O)CCC2C3C(C)CC4=C(CCC(=O)C4)C3CCC21C` (stereo unspecified): the melting point was 167 °C.

The compound `Cc1csc2nc3ccccc3n12` registered a melting point of 161 to 163 °C.

Turning to `CCC1(O)CCC2(C)C(CCC3C4CCC(=O)C4(C)CCC32)C1` (stereo unspecified), the melting point fell in the range of 113 to 116 °C.

Consider `Nc1snnc1-c1ccc(C(F)(F)F)cc1`, for which the melting point is 125 to 128 °C.

In turn, `O=c1[nH]c2c(c(=O)n1C1CCCCC1)CCC2` came in with a melting point of 316 °C.

In turn, `Oc1cccnc1I` showed a melting point of 193 °C.

The compound `Cc1cc(C)c2c(N)c(C(N)=O)sc2n1` registered a melting point of 234 to 235 °C.

For `CCCCCCCCCCCCCCCCCCCCCCCCCC(=O)O`, the melting point stood at 88.5 °C.

With `Cc1nn(C)c(C)c1N=C=O`, the melting point is 36 to 40 °C.

With `COc1cc(CCNC(=O)CC(C)C)ccc1OCc1ccccc1`, the melting point came to 114 °C.

For `Brc1cc2c(cc1Br)Oc1cc(Br)c(Br)cc1O2`, the melting point was found to be 334 °C.

The compound `CC(C)(NC(=O)OCc1ccccc1)C(=O)O` had a melting point of 77 to 80 °C.

In turn, `CCOP(=S)(Oc1ccc([N+](=O)[O-])cc1)c1ccccc1` (stereo unspecified) yielded a melting point of 36 °C.

With `Cc1ccc2ccc3ccccc3c2c1`, the melting point came out at 65 °C.

`NC(=S)c1ccc2c(c1)OCCO2` had a melting point of 140 to 144 °C.

Compound `NC(=S)Nc1cc(C(F)(F)F)cc(C(F)(F)F)c1` had a melting point of 166 to 168 °C.

In the case of `CCOC(=O)c1cc(C(C)(C)C)nn1Cc1c(C)cc(C)cc1C`, the melting point is 72 to 74 °C.

On to `Brc1ccc2nccnc2c1`, for which the melting point is 54 to 55 °C.

As to `CCOC(=O)CN1CCN(C(=O)C=Cc2cc(OC)c(OC)c(OC)c2)CC1`, the melting point was determined as 96 °C.

`CC(Cc1ccccc1)C(=O)O` (stereo unspecified) came in with a melting point of 37 to 37.5 °C.

Turning to `CC(C)(C)c1nnc(NS(=O)(=O)c2ccccc2)s1`, the melting point stood at 163 °C.

The compound `O=C=Nc1ccccc1` yielded a melting point of -31.3 °C.

In the case of `CCOC(=O)c1ncoc1-c1ccccc1`, the melting point is 32 to 35 °C.

On to `OC1OC(c2ccccc2)Cc2ccccc21` (stereo unspecified), for which the melting point was in the range of 100 to 103 °C.

For the compound `O=Cc1ccccc1OC1OC(CO)C(O)C(O)C1O` (stereo unspecified), the melting point stood at 178 °C.

`c1ccc(C2=NC(c3ccccc3)C(c3ccccc3)N2)cc1` (stereo unspecified): the melting point amounted to 134 °C.

With `CN(C)c1ccc(C(=O)C(=O)c2ccc(N(C)C)cc2)cc1`, the melting point is 202 °C.

As for `C[C@H](Cl)C(=O)O`, the melting point stood at 4 °C.

With `CNC(=O)CC#N`, the melting point was 82 to 84 °C.

Regarding `O=[N+]([O-])c1ccc(C=Cc2cccc3ccccc23)c([N+](=O)[O-])c1`, the melting point is 228 °C.

Compound `Cc1nc2ccccc2nc1-c1cc(-c2nc3ccccc3nc2C)c([N+](=O)[O-])cc1[N+](=O)[O-]` displayed a melting point of 239 °C.

As for `COC(=O)c1ccc(CN2CCN(C(=O)OC(C)(C)C)CC2)cc1`, the melting point is 78 to 80 °C.

The compound `Clc1ncnc2sc3c(c12)CCC3` showed a melting point of 108 to 110 °C.

In the case of `COc1ccc(F)cc1CBr`, the melting point is 60 °C.

`N#Cc1c(F)cccc1OCc1ccc(Cl)cc1` gave a melting point of 146 to 148 °C.

`Cc1nn(C(=O)OC(C)(C)C)c(C)c1C=O` registered a melting point of 59 to 62 °C.

`O=C(OC(C(=O)O)C(OC(=O)c1ccccc1)C(=O)O)c1ccccc1` (stereo unspecified): the melting point was 155 °C.

In turn, `COc1cc(C(=O)NS(=O)(=O)c2ccccc2C)ccc1Cc1cn(C)c2ccc(NC(=O)OC3CCCC3)cc12` registered a melting point of 138 °C.

Consider `N#Cc1sc2c(=O)c3ccccc3c(=O)c=2sc1C#N`, for which the melting point is 225 °C.

`O=C(O)c1cc(Br)ccc1Cl`: the melting point worked out at 160 °C.

In turn, `C=C1C(=CC=C2CCCC3(C)C2CCC3C(C)CCCC(C)(C)O)CC(O)CC1O` (stereo unspecified) returned a melting point of 115 °C.

`C=C(C)c1ccc(C(C)C)cc1` yielded a melting point of -30.6 °C.

On to `O=C(CI)NCCNc1cccc2c(S(=O)(=O)O)cccc12`, for which the melting point came out at 300 °C.

Turning to `Cn1nnc2c1ccc(=O)n2C1OC(CO)C(O)C1O` (stereo unspecified), the melting point amounted to 211 °C.

As to `Nc1cccc2c1CCCC2`, the melting point is 38 °C.

For the compound `O=C(O)C=Cc1ccc(Cl)c([N+](=O)[O-])c1`, the melting point was 187 °C.

With `O=C(O)c1cc(F)cc(Br)c1`, the melting point was determined as 143 °C.

Take `CC12CCC3C(CCC4CC(C#N)CCC43C)C1CCC2=O` (stereo unspecified): the melting point was 164 °C.

`O=Cc1ccc(-c2ccco2)s1` showed a melting point of 40 to 41 °C.

The compound `Cc1cccc(F)c1` registered a melting point of -87 °C.

Turning to `O=S1(=O)OC(c2ccc(O)c(Cl)c2)(c2ccc(O)c(Cl)c2)c2ccccc21`, the melting point is 261 °C.

The compound `CC(C)(C)C(=O)NNCc1ccccc1` registered a melting point of 68.5 °C.

Take `CSC(=O)c1c(C(F)F)nc(C(F)(F)F)c(C(=O)SC)c1CC(C)C`: the melting point worked out at 65 °C.

`CCOC(=O)c1cc(Cl)c(O)c(Cl)c1` yielded a melting point of 111 °C.

Turning to `CC(=O)N1CC(C)=CC1=O`, the melting point is 89 to 90 °C.

Consider `O=S(=O)(Cl)c1ccc(-c2ccccn2)s1`, for which the melting point lay in the range of 87 to 89 °C.

In the case of `c1nnn[nH]1`, the melting point is 157 °C.

The compound `Brc1ccc(Oc2ccc(Br)c(Br)c2)cc1` registered a melting point of 48 to 49 °C.

Compound `Clc1cc(Cl)c(I)c(Cl)c1` showed a melting point of 56 to 58 °C.

`C=CCc1ccc(OC(C)=O)c(OC)c1`: the melting point is 30.5 °C.

Consider `C=CCNC(=O)NCC=C`, for which the melting point stood at 91.5 °C.

`C=CC(OC(C)=O)OC(C)=O`: the melting point is -37.6 °C.

Compound `CC1C(=O)C23C(O)CC4C(C)(C)CCC(O)C4(C)C2C(O)CC1C3O` (stereo unspecified) returned a melting point of 282 °C.

As to `O=C(O)c1cccc(-c2cncnc2)c1`, the melting point fell in the range of 244 to 245 °C.

On to `COc1ccc([N+](=O)[O-])cc1NN=C1C(=O)C(C(=O)Nc2cccc([N+](=O)[O-])c2)=Cc2ccccc21`, for which the melting point turned out to be 335 °C.

`CCCCCCCCCCOc1ccc(C(C)=O)cc1` returned a melting point of 35 to 37 °C.

In turn, `c1ccc2nonc2c1` had a melting point of 54 °C.

In turn, `Nc1ccc2c(c1)OCCCO2` had a melting point of 81 to 82 °C.

As to `O=C(Cn1ccnc1[N+](=O)[O-])NCc1ccccc1`, the melting point is 189 °C.

Regarding `O=C1NC(=O)C2CC(c3ccccc3)CCC12` (stereo unspecified), the melting point lay in the range of 134 to 136 °C.

Take `CCCSc1ncccc1C(=O)Cl`: the melting point stood at 43.4 °C.

`O=C(O)c1cc([N+](=O)[O-])cnc1O` registered a melting point of 246 °C.

`CCOC(=O)C=Cc1ccc(O)c(OC)c1` yielded a melting point of 57 to 59 °C.

Compound `O=C(O)C1CC(=O)N(Cc2ccc(C(F)(F)F)cc2)C1` (stereo unspecified) yielded a melting point of 128 to 130 °C.

For `Cc1cccc(C)c1N(C(=O)CCl)C1CCOC1=O` (stereo unspecified), the melting point came to 146 °C.

Turning to `CC(C)(C)C(=O)Nc1ncccc1C=O`, the melting point lay within 87 to 91 °C.

For the compound `COC(=O)c1sccc1Br`, the melting point is 50 to 51 °C.

In turn, `O=C(O)c1cc(O)c2cccc(O)c2n1` showed a melting point of 297 to 298 °C.

`COc1ccc(-c2nc(CCl)no2)cc1` showed a melting point of 60 to 62 °C.

In turn, `O=c1cc(-c2ccc(O)cc2)oc2cc(O)cc(O)c12` displayed a melting point of 348 °C.

`CCC(Br)C(=O)O` (stereo unspecified) registered a melting point of -4 °C.

`COC(=O)c1ccc(N)c(Br)c1` came in with a melting point of 104 to 108 °C.

Values taken from a melting point compilation (Tetko et al.).
